From ChEMBL document CHEMBL1122027, “N-Aralkyl substitution of 2-amino-5,6- and -6,7-dihydroxy-1,2,3,4-tetrahydronaphthalenes. 2. Derivatives of a hypotensive-positive inotropic agent” (1982)

How the values were obtained:
Canis familiaris [1] = assay: In vivo dose causing a 50% increase in right ventricular contractile force in mongrel dogs; type: functional, Canis lupus familiaris, Heart right ventricle
Canis familiaris [2] = species: Canis familiaris; assay: Cardioselectivity was estimated by normalizing changes in diastolic blood pressure to the 100% levels of contractile force in mongrel dogs; type: functional, Canis lupus familiaris, Artery
Canis familiaris [3] = species: Canis familiaris; assay: Inotropic selectivity was assessed by normalizing changes in heart rate to the 50% levels in mongrel dogs; type: functional, Canis lupus familiaris
Canis familiaris [4] = species: Canis familiaris; assay: Inotropic selectivity was assessed by normalizing changes in heart rate to the 100% levels in mongrel dogs; type: functional, Canis lupus familiaris
Canis familiaris [5] = assay: In vivo dose causing a 100% increase in right ventricular contractile force in mongrel dogs; type: functional, Canis lupus familiaris, Heart right ventricle
Canis familiaris [6] = species: Canis familiaris; assay: Cardioselectivity was estimated by normalizing changes in diastolic blood pressure to the 50% levels of contractile force in mongrel dogs; type: functional, Canis lupus familiaris, Artery

SMILES | Inotropic potency (Canis familiaris [1]) | Delta blood pressure (Canis familiaris [2]) | Delta HR (Canis familiaris [3]) | Delta HR (Canis familiaris [4]) | Inotropic potency (Canis familiaris [5]) | Delta blood pressure (Canis familiaris [6])
CC(Cc1ccc(O)c(O)c1)NC1CCc2cc(O)c(O)cc2C1 (centres undefined) | 11.4 nM/kg | -30 mmHg | -5 beats min-1 | 4 beats min-1 | 27 nM/kg | -39 mmHg
CC(Cc1ccc(O)c(O)c1)NC1CCc2cc(O)ccc2C1 (centres undefined) | 25 nM/kg | -66 mmHg | 30 beats min-1 | 49 beats min-1 | 85 nM/kg | -46 mmHg
Oc1cc2c(cc1O)CC(NC1CCc3c(ccc(O)c3O)C1)CC2 (centres undefined) | 210 nM/kg | -55 mmHg | 24 beats min-1 | 31 beats min-1 | 590 nM/kg | -61 mmHg
CC(Cc1ccc(O)cc1)NC1CCc2cc(O)c(O)cc2C1 (centres undefined) | 680 nM/kg | – | 23 beats min-1 | – | – | -25 mmHg
CC(Cc1ccc(O)c(O)c1)NCCc1ccc(O)c(O)c1 (centres undefined) | 4 nM/kg | -34 mmHg | 26 beats min-1 | 39 beats min-1 | 13 nM/kg | -19 mmHg
COc1ccc(CC(C)NCCc2ccc(O)c(O)c2)cc1OC (centres undefined) | 490 nM/kg | -31 mmHg | 10 beats min-1 | 17 beats min-1 | 1100 nM/kg | -24 mmHg
Oc1cc2c(cc1O)CC(NC1CCc3cc(O)c(O)cc3C1)CC2 (centres undefined) | 961 nM/kg | 84 mmHg | 31 beats min-1 | 62 beats min-1 | 2650 nM/kg | -78 mmHg
